Measured values taken from US11214578B2, “Urea/carbamates FAAH MAGL or dual FAAH/MAGL inhibitors and uses thereof” (Northeastern University, priority 2014, dated 2022).

Key:
Type in all cases: biochemical
ΔTM rat FAAH = target: T1, ΔTM rat FAAH (Rattus norvegicus, UniProt P97612); assay: Fluorescent assay protocol for ΔTM rat FAAH (AAMCA substrate); conditions: 15 min preincubation, read-out: IC50 rFAAH
T1 construct: Preparation of Transmembrane Domain-Deleted Rat FAAH (ΔTM rFAAH); made in house; host or cells: E. coli
T1 sequence (P97612 30-579 limits assumed): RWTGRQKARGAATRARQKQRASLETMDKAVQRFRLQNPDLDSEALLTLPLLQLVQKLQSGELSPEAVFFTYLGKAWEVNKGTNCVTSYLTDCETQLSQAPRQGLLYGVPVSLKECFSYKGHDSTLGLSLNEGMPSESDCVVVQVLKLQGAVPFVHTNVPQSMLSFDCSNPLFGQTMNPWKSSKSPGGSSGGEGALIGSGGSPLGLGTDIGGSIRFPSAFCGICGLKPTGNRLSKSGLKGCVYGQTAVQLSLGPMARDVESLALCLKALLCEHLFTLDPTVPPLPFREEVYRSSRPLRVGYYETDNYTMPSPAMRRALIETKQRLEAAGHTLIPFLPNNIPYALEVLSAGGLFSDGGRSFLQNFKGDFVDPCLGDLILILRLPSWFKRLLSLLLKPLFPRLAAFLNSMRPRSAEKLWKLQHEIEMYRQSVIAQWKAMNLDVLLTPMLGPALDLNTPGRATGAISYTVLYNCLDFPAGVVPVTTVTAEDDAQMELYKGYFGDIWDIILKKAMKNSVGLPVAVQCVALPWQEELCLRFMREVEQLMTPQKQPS
Procedure: Procedure was followed as described for hMAGL, except that arachidonoyl-methyl coumarin amide (AAMCA) was used as fluorigenic substrate. […] For the screening assay, 3 concentrations (1 μM, 10 μM, and 100 μM) of test compounds, 15 μg of ΔTM rFAAH and assay buffer were pre-incubated for 15 min at 25° C. […] The fluorescence reading at the 3 hour time point (linear enzyme kinetics) was used to calculate percent inhibition based on control assays without inhibitor present. All FAAH assays were performed in triplicate for each inhibitor concentration, and IC50 values determined using Prizm software (GraphPad Software, Inc.).

Human FAAH (MBPΔTMhFAAH) = target: T2, Human FAAH (MBPΔTMhFAAH) (Homo sapiens, UniProt O00519); assay: Fluorescent assay protocol for hFAAH; conditions: human FAAH (MBP fusion, ΔTM), procedure as for rFAAH
T2 construct: made in house; host or cells: E. coli (pMALcE4 vector)
T2 sequence (O00519 30-579 limits assumed): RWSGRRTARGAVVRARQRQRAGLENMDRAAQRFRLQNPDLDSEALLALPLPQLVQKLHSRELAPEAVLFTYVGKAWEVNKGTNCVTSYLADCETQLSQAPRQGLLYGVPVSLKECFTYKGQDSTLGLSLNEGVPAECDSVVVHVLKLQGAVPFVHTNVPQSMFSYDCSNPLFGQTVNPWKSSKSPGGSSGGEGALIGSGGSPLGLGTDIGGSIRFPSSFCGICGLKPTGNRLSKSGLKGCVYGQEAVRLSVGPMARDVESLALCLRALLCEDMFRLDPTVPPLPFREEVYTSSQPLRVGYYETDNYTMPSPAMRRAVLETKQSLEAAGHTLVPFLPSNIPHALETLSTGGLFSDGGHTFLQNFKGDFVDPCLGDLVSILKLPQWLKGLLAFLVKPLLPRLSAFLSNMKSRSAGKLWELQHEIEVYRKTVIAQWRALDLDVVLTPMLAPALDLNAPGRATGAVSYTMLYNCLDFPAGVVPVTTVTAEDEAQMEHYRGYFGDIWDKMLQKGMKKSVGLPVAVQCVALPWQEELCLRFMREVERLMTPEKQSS
Procedure: Human FAAH without putative transmembrane domain following maltose binding protein was expressed in E. coli cells using pMALcE4 vector Alapafuja et al J. Med. Chem. (2012) 55: 10074-89.
Procedure was followed as described for hMAGL, except that arachidonoyl-methyl coumarin amide (AAMCA) was used as fluorigenic substrate. Compounds were diluted in 50:50 DMSO/assay buffer (50 mM HEPES, 1 mM EDTA, 0.1% BSA, pH 7.4) so as to have a final DMSO concentration below 8% in each reaction. For the screening assay, 3 concentrations (1 μM, 10 μM, and 100 μM) of test compounds, 15 μg of ΔTM rFAAH and assay buffer were pre-incubated for 15 min at 25° C. AAMCA (20 μM, 2×Km) was added prior to incubation at 25° C. and kinetic fluorescence reading every 20 minutes (λex=360/λem=460) for 4 hours on a BioTek Synergy HT Microplate Reader (BioTek Instruments, Winooski, Vt.). The fluorescence reading at the 3 hour time point (linear enzyme kinetics) was used to calculate percent inhibition based on control assays without inhibitor present. All FAAH assays were performed in triplicate for each inhibitor concentration, and IC50 values determined using Prizm software (GraphPad Software, Inc.).
Procedure was followed as described for rFAAH.

Rat MAGL (rMAGL) = target: T3, Rat MAGL (rMAGL) (Rattus norvegicus, UniProt Q8R431); assay: Fluorescent assay protocol for rMAGL; conditions: recombinant rat MAGL, procedure as for hMAGL; read-out: IC50 rMAGL
T3 construct: made in house; host or cells: E. coli
T3 sequence (Q8R431 1-303): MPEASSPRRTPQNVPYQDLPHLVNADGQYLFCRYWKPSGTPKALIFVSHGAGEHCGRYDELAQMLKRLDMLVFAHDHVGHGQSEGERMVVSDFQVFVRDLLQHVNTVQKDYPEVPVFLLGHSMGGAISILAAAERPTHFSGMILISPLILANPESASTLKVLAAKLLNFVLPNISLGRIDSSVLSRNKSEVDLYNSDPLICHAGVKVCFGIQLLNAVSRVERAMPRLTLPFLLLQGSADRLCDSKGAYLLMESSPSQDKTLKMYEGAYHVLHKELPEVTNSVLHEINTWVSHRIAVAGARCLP
Procedure: (§1) This medium throughput assay involved a 96-well plate format in which hMAGL activity was monitored by the hydrolysis of the substrate 7-hydroxy-6-methoxy-4-methylcoumarin ester (AHMMCE) to form the fluorescent product, coumarin. […] Upon the addition of AHMMCE, the reaction was incubated at 25° C. for 120 min; fluorescence readings were taken every 15 min at 360 nm/460 nm (λexcitation/λemission) using a Synergy HT Plate Reader (Bio-Tek, Winooski, Vt.). […] External standards were used to convert relative fluorescence units to the amount of 4-methylcoumarin formed. All MAGL assays were performed in triplicate for each inhibitor concentration, and IC50 values were calculated using Prizm software (GraphPad Software, Inc., San Diego, Calif.).
Procedure was followed as described for hMAGL.

Human MAGL (hMAGL) = target: T4, Human MAGL (hMAGL) (Homo sapiens, UniProt Q99685); assay: Fluorescent assay protocol for hMAGL (AHMMCE substrate); conditions: recombinant human MAGL, AHMMCE substrate, 15 min preincubation; read-out: IC50 hMAGL
T4 construct: hexahistidine; made in house; host or cells: E. coli
T4 sequence (Q99685 1-303): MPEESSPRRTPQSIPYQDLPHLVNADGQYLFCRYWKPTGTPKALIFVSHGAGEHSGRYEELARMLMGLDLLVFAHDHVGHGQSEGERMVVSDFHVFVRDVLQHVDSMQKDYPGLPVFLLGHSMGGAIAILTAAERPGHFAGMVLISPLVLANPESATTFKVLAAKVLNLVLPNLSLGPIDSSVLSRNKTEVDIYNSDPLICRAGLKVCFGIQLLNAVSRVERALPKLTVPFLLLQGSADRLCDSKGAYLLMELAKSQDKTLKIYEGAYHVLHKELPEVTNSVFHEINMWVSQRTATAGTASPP
Procedure: as §1

IC50 (ΔTM rat FAAH) | IC50 (Human FAAH (MBPΔTMhFAAH)) | IC50 (Rat MAGL (rMAGL)) | IC50 (Human MAGL (hMAGL)) | Structure (SMILES)
110 to 1000 nM | 110 to 1000 nM | > 1000 nM | > 1000 nM | O=C(N1CCN(C(c2ccc(F)cc2)c2ccc(F)cc2)CC1)n1cnc(-c2ccccc2)c1 [Example 29, (4-(bis(4-fluorophenyl)methyl)piperazin-1-yl)(4-phenyl-1H-imidazol-1-yl)methanone]
> 1000 nM | 110 to 1000 nM | > 1000 nM | > 1000 nM | O=C(N1CCN(C(c2ccccc2)c2ccccc2)CC1)n1cnc(-c2ccccc2)c1 [Example 30, (4-benzhydrylpiperazin-1-yl)(4-phenyl-1H-imidazol-1-yl)methanone]
10 to 100 nM | 10 to 100 nM | > 1000 nM | > 1000 nM | O=C(N1CCN(C(c2ccccc2)c2ccccc2)CC1)n1nnnc1Cc1ccccc1 [Example 31, (4-benzhydrylpiperazin-1-yl)(5-benzyl-1H-tetrazol-1-yl)methanone]
110 to 1000 nM | 110 to 1000 nM | > 1000 nM | > 1000 nM | O=C(N1CCN(C(c2ccc(F)cc2)c2ccc(F)cc2)CC1)n1nnnc1Cc1ccccc1 [Example 32, (5-benzyl-1H-tetrazol-1-yl)(4-(bis(4-fluorophenyl)methyl)piperazin-1-yl)methanone]
> 1000 nM | > 1000 nM | > 1000 nM | > 1000 nM | COC(=O)c1ncn(C(=O)N2CCC(OC(c3ccc(F)cc3)c3ccc(F)cc3)CC2)n1 [Example 33, (3-(Carbomethoxy)-1H-1,2,4-triazol-1-yl)(4-(bis(4-fluorophenyl)methyoxy)pipe-ridin-1 yl)methanone]
10 to 100 nM | 10 to 100 nM | > 1000 nM | > 1000 nM | O=C1CC2(CCC(C(=O)n3cnc(Br)c3)CC2)Oc2ccccc21 (centres unmarked) [Example 34, 4′-(4-bromo-1H-imidazole-1-carbonyl)spiro[chromane-2,1′-cyclohexan]-4-one]
10 to 100 nM | 10 to 100 nM | > 1000 nM | > 1000 nM | N#Cc1ccc(F)c(OC(=O)N2CCC(Cc3ccccc3)CC2)c1 [Example 45, 5-Cyano-2-fluorophenyl 4-benzylpiperidine-1-carboxylate]
10 to 100 nM | 10 to 100 nM | > 1000 nM | > 1000 nM | N#Cc1cccc(OC(=O)N2CCC(=C(c3ccccc3)c3ccccc3)CC2)c1 [Example 47, 3-cyanophenyl 4-(diphenylmethylene)piperidine-1-carboxylate]
110 to 1000 nM | 10 to 100 nM | > 1000 nM | > 1000 nM | COC(=O)c1cccc(OC(=O)N2CCC(=C(c3ccccc3)c3ccccc3)CC2)c1 [Example 48, 3-(methoxycarbonyl)phenyl 4-(diphenylmethylene)piperidine-1-carboxylate]
10 to 100 nM | 10 to 100 nM | 10 to 100 nM | 10 to 100 nM | N#Cc1cccc(OC(=O)N2CCC(OC(c3ccc(Cl)cc3)c3cccnc3Cl)CC2)c1 (centres unmarked) [Example 53, 3-cyanophenyl 4-((4-chlorophenyl)(2-chloropyridin-3-yl)methoxy)piperidine-1-carboxylate]
110 to 1000 nM | 10 to 100 nM | 110 to 1000 nM | 110 to 1000 nM | O=C(Oc1cccc(Cl)n1)N1CCC(C(c2ccccc2)c2ccccc2)CC1 [Example 54, 6-Chloropyridin-2-yl 4-(benzhydryl)piperidine-1-carboxylate]
10 to 100 nM | 10 to 100 nM | 110 to 1000 nM | 10 to 100 nM | COC(=O)c1cccc(OC(=O)N2CCC(OC(c3ccccc3)c3ccccc3)CC2)c1 [Example 55, 3-(methoxycarbonyl)phenyl 4-(benzhydryloxy)piperidine-1-carboxylate]

Structure (SMILES) | IC50 (ΔTM rat FAAH) | IC50 (Human FAAH (MBPΔTMhFAAH)) | IC50 (Rat MAGL (rMAGL)) | IC50 (Human MAGL (hMAGL))
CC(c1ccccc1)N1CCN(C(=O)Oc2cccc(C#N)c2)CC1 (centres unmarked) [Example 36, 3-cyanophenyl 4-(1-phenylethyl)piperazine-1-carboxylate] | 10 to 100 nM | 10 to 100 nM | > 1000 nM | > 1000 nM
N#Cc1cc(O)cc(OC(=O)N2CCN(C(c3ccccc3)c3ccccc3)CC2)c1 [Example 38, 3-cyano-5-hydroxyphenyl 4-benzhydrylpiperazine-1-carboxylate] | 110 to 1000 nM | 110 to 1000 nM | > 1000 nM | > 1000 nM
O=C(Oc1cccc(Cl)n1)N1CCN(C(c2ccccc2)c2ccccc2)CC1 [Example 39, 6-chloropyridin-2-yl 4-benzhydrylpiperazine-1-carboxylate] | 110 to 1000 nM | 110 to 1000 nM | > 1000 nM | > 1000 nM
N#Cc1ccnc(OC(=O)N2CCN(C3c4ccccc4-c4ccccc43)CC2)c1 [Example 42, 4-cyanopyridin-2-yl 4-(9H-fluoren-9-yl)piperazine-1-carboxylate] | > 1000 nM | > 1000 nM | 10 to 100 nM | 10 to 100 nM
N#Cc1cccnc1OC(=O)N1CCN(C2c3ccccc3-c3ccccc32)CC1 [Example 43, 3-cyanopyridin-2-yl 4-(9H-fluoren-9-yl)piperazine-1-carboxylate] | > 1000 nM | > 1000 nM | 10 to 100 nM | 10 to 100 nM
